This is an account of results in ChEMBL document CHEMBL4831556, “Discovery of a Novel Potent and Selective Calcium Release-Activated Calcium Channel Inhibitor: 2,6-Difluoro-N-(2'-methyl-3'-(4-methyl-5-oxo-4,5-dihydro-1,3,4-oxadiazol-2-yl)-[1,1'-biphenyl]-4-yl)benzamide. Structure-Activity Relationship and Preclinical Characterization” (J Med Chem, 2021).

A short description of series [1]: Toxicity in mouse assessed as maximum tolerated dose. The following applies: in vivo.
In another series the target is Tumor necrosis factor (Homo sapiens, UniProt P01375). Nature of the series: Inhibition of TNF-alpha in thapsigargin stimulated human whole blood. Format: tissue-based.
Series [2] in a line: Tmax in CFA-induced rheumatoid arthritis Lewis rat model at 0.3 mg/kg, po administered once daily for 15 days. The following applies: in vivo, time 15 day. Format: ADME, organism-based.
Series [3] in a line: Cmax in CFA-induced rheumatoid arthritis Lewis rat model at 1 mg/kg, po administered once daily for 15 days. The format is ADME, organism-based. More on the design: route oral, dose 1 mg/kg, time 15 day. To be noted: in vivo.
Series [4] in a line: Tmax in collagen-induced rheumatoid arthritis DBA/1J mouse model at 3 mg/kg, po administered twice daily for 15 days in presence of 0.75 mg/kg of methotrexate. The format is ADME, organism-based. To be noted: in vivo, time 15 day.
Series [5] can be described thus: AUClast in CFA-induced rheumatoid arthritis Lewis rat model at 3 mg/kg, po administered once daily for 15 days. The format is ADME, organism-based. To be noted: in vivo. More on the design: route oral, time 15 day, dose 3 mg/kg.
The nature of series [6]: AUC(0 to t) in rat at 60 mg/kg/day after 2 weeks. The format is ADME, organism-based. More on the design: dose 60 mg/kg/day, time 2 weeks. The following applies: in vivo.
Series [7] can be described thus: Toxicity in human assessed as minimum effective dose.
Series [8] is described as follows: AUClast in collagen-induced rheumatoid arthritis DBA/1J mouse model at 3 mg/kg, po administered twice daily for 15 days. The format is ADME, organism-based. Set-up: route oral, dose 3 mg/kg, time 15 day. The following applies: in vivo.

Chain of Tumor necrosis factor (P01375 whole entry): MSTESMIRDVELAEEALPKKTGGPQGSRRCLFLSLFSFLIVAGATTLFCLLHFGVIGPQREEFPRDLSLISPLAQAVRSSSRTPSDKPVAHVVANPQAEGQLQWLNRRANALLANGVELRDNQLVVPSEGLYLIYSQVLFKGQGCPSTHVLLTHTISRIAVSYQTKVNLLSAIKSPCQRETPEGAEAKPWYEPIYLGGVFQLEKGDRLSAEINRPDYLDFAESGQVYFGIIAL

Take `Cc1c(-c2ccc(NC(=O)c3c(F)cccc3F)cc2)cccc1-c1nn(C)c(=O)o1`: in series [1], the MTD came out at 2000 mg/kg. At Tumor necrosis factor, this compound came in with an IC50 of 694 nM. Also, the Tmax in series [2] and in series [4] was 2 h in each case. In addition, the peak level in series [3] (Cmax) was 2000 nM. The figures for the AUC(0-t) at 360 h in [5] and in series [8] were 80 µM·h and 12 µM·h, respectively. In addition, in [6], the AUC(0-t) at 336 h was 76700 ng·h/mL. For the same compound, the MED in [7] was determined as 80 mg/kg.

For orientation: MTD means the largest dose that counted as tolerated. As a reminder, the IC50 is the concentration that inhibits the measured activity by half. For orientation: Tmax means the time at which the peak concentration occurs. One may read the Cmax as the maximum level reached in the sampled fluid or tissue. By AUC(0-t) is commonly meant exposure summed from dosing to a finite time, without extrapolation to infinity. A lower AUC(0-t) goes with less exposure.
